SMILES strings stand for the structures.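 Results reflect a 48-hour exposure of cells in 96-well plates to compound at five concentrations. TGI is the concentration that stops growth completely.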

Common to all, as to assay: NCI tumour cell line growth inhibition, 48 h
The subject of assay [1] is DU-145 prostate.
Assay [2] has as its system UACC-257 melanoma.
Assay [3] relates to 786-0 renal.
For assay [4], the system named is SK-MEL-2 melanoma.
Assay [5] relates to HCC-2998 colon.
In assay [6] the test system is SF-539 CNS.
Assay [7] has as its system LOX IMVI melanoma.
The subject of assay [8] is MDA-MB-435.
Assay [9] relates to SK-MEL-5 melanoma.
The subject of assay [10] is COLO 205 colon.

For `CCOP(=O)(CC1CC(O)(CNc2cc(Cl)nc(N)n2)C1)OCC` (stereo not given), the TGI in assay [1], in [2], in assay [3], in assay [4], in assay [5] and in [6] was greater than 100 µM each time. The TGI in assay [7], in assay [8], in assay [9] and in [10] was greater than 100 µM in each case.

As for `COc1ccc(OC)c(C(=O)/C=C/c2cc(O)c(O)cc2F)c1`, the TGI in assay [1] came to 15.1 µM; in assay [2] it was 18.3 µM; in assay [3], 17.6 µM; in assay [4] it was 9.51 µM; in assay [5], 1.98 µM; in assay [6], 0.626 µM. In addition, the TGI in assay [7] was determined as 16.1 µM; in assay [8], 0.99 µM; in assay [9], 12.4 µM; in assay [10], 31.7 µM.

As for `Cc1c(C)c2c(c(N)c1C#N)C(=O)N(OS(=O)(=O)c1ccccc1)C2=O`, the TGI in [1] was 64.3 µM; in assay [2] it was 68 µM; in assay [3], 30.3 µM; in assay [4], greater than 100 µM; in [5] it was greater than 100 µM; in assay [6], 34.2 µM. Moreover, the TGI in [7] was 55.1 µM; in assay [8], 58.8 µM; in assay [9], greater than 100 µM; in assay [10], 45.3 µM.

Consider `O=C1c2n[nH]nc2C(=O)c2n[nH]nc21`, for which the TGI in [1], in [2], in [3], in assay [4], in [5] and in assay [6] was greater than 100 µM in each case. Moreover, the TGI in assay [7], in [8], in [9] and in assay [10] was greater than 100 µM each time.

Consider `N#Cc1nc(C(F)(F)F)oc1N`, for which the TGI in assay [1], in assay [2], in assay [3], in [4], in assay [5] and in assay [6] was greater than 100 µM throughout. Besides, the TGI in assay [7], in [8], in assay [9] and in [10] was greater than 100 µM in each case.

Turning to `CCOC(=O)c1[nH]cnc1/N=N/N(C)N`, the TGI in assay [1], in assay [2], in assay [3], in assay [4], in assay [5] and in [6] was greater than 100 µM in each case. For the same molecule, the TGI in assay [7], in assay [8], in assay [9] and in assay [10] was greater than 100 µM in each case.

For `NNC(=Nc1ccccc1)SCc1ccccc1`, the TGI in [1], in assay [2], in assay [3], in [4], in assay [5] and in assay [6] was greater than 100 µM throughout. The TGI in assay [7], in assay [8], in [9] and in assay [10] was greater than 100 µM each time.

On to `[N-]=[N+]=NC1=NNC2(C(=O)N1)c1ccccc1-c1ccccc12`, for which the TGI in [1], in [2], in assay [3], in assay [4], in [5] and in [6] was greater than 100 µM each time. The TGI was greater than 100 µM in assay [7], 33.1 µM in assay [8], greater than 100 µM in assay [9] and greater than 100 µM in assay [10].

Consider `Nc1nc2cc(CNc3ccc(C(=O)O)cc3)ccc2nc1-c1ccccc1`, for which the TGI in assay [1], in assay [2], in assay [3], in [4], in assay [5] and in assay [6] was greater than 100 µM in each case. Further, the TGI in assay [7], in assay [8], in assay [9] and in [10] was greater than 100 µM throughout.

In the case of `O=C(O)CS(=O)c1ccc2c3c(cccc13)C(=O)c1ccccc1-2` (stereo not given), the TGI in assay [1], in assay [2], in [3], in assay [4], in [5] and in assay [6] was greater than 100 µM in each case. Moreover, the TGI in assay [7], in [8], in assay [9] and in [10] was greater than 100 µM throughout.

Take `CN(C)c1ccc(/C=N/n2c(-c3ccccc3)nc3ccccc3c2=O)cc1`: the TGI in [1], in assay [2], in assay [3], in assay [4], in assay [5] and in assay [6] was greater than 100 µM throughout. The TGI in assay [7], in assay [8], in [9] and in [10] was greater than 100 µM each time.

For the molecule `CC(/C=N/N(C)C1=NCCCCN1)=N/N(C)C1=NCCCCN1`, the TGI in assay [1], in assay [2], in [3], in [4], in [5] and in [6] was greater than 100 µM each time. Also, the TGI in assay [7], in assay [8], in [9] and in assay [10] was greater than 100 µM in each case.

As to `c1nncn1C12C3C4C5C3C1C5C42` (stereo not given), the TGI in assay [1], in assay [2], in assay [3], in [4], in assay [5] and in assay [6] was greater than 100 µM each time. In addition, the TGI in [7], in assay [8], in assay [9] and in [10] was greater than 100 µM throughout.

On to `CCN(CC)c1ccc(/C=c2\nc(-c3ccccc3)n3c2nc2ccccc23)cc1`, for which the TGI is greater than 100 µM in assay [1]; 99.3 µM in assay [2]; greater than 100 µM in [3]; greater than 100 µM in [4]; 23.3 µM in assay [5]; 11.4 µM in [6]. Moreover, the TGI in assay [7] was 26.4 µM; in [8], 48.8 µM; in assay [9], 21.9 µM; in [10] it was 20.1 µM.

Regarding `Cc1c(C#N)c2nnn(-c3ccc([N+](=O)[O-])cc3)c(=O)n2c1-c1ccccc1`, the TGI in [1] is 26.1 µM; in assay [2], 47.6 µM; in assay [3] it was 26.6 µM; in assay [4], 22 µM; in [5] it was 20 µM; in assay [6] it was 28.1 µM. Further, the TGI is 22 µM in [7], 42.9 µM in assay [8], 25.2 µM in [9] and 22.9 µM in assay [10].

Turning to `COc1cc(CCNC2=CC(=O)c3cccnc3C2=O)ccc1O`, the TGI was 3.11 µM in [1]; 2.18 µM in [2]; 3.67 µM in assay [3]; 3.46 µM in assay [4]; 3.58 µM in assay [5]; 3.04 µM in [6]. The TGI in assay [7] turned out to be 1.41 µM; in assay [8], 0.317 µM; in assay [9], 1.08 µM; in [10], 3 µM.

Turning to `COc1ccc2c(c1)c(=O)c1c(NCCCN(C)CCCNc3ccc4c(=O)n(CCN(C)C)c(=O)n5c6ccc(OC)cc6c(=O)c3c45)ccc3c(=O)n(CCN(C)C)c(=O)n2c31`, the TGI in assay [1] stood at 1.18 µM; in assay [2] it was 2.11 µM; in assay [3], 1.48 µM; in [4], 2.44 µM; in assay [5] it was 0.544 µM; in [6] it was 1.95 µM. In addition, the TGI was determined as 0.161 µM in assay [7], 0.756 µM in assay [8], 0.813 µM in assay [9] and 0.803 µM in assay [10].

As to `c1ccc2c(c1)nc1n2CCNC1`, the TGI in [1], in assay [2], in [3], in assay [4], in assay [5] and in assay [6] was greater than 100 µM each time. Besides, the TGI in [7], in assay [8], in [9] and in assay [10] was greater than 100 µM each time.

`COc1ccc(C2c3cc4c(cc3OC(NNC(N)=O)C2C)OCO4)cc1` (stereo not given): the TGI was greater than 100 µM in assay [1]; greater than 100 µM in assay [2]; 37.5 µM in [3]; greater than 100 µM in [4]; 35 µM in [5]; 4.86 µM in assay [6]. The TGI in [7] is greater than 100 µM; in [8] it was 8.2 µM; in assay [9], greater than 63.2 µM; in assay [10], 15 µM.

`CC(C)=CCC/C(=C\CC/C(=C\CCc1ccoc1)C(=O)O)C(=O)O`: the TGI in [1], in [2], in assay [3], in assay [4], in assay [5] and in assay [6] was greater than 100 µM in each case. Besides, the TGI in [7], in assay [8], in [9] and in assay [10] was greater than 100 µM in each case.

Turning to `COc1ccc(/C=C2\Sc3nnc(C)n3N=C2c2cc(F)c(Cl)cc2Cl)cc1OC`, the TGI in [1] was determined as 27.8 µM; in assay [2], 32.5 µM; in assay [3] it was 9.64 µM; in assay [4] it was 33.6 µM; in assay [5], 32.6 µM; in assay [6] it was 37.7 µM. For the same molecule, the TGI is 31.4 µM in assay [7], 23.2 µM in assay [8], 36.2 µM in assay [9] and 54.3 µM in assay [10].

With `C/C=C1\CN2CCC34c5ccccc5N(C)C35OCC4(C(=O)OC)C1CC25` (stereo not given), the TGI was greater than 100 µM in assay [1]; greater than 100 µM in [2]; greater than 100 µM in assay [3]; greater than 100 µM in [4]; 29.1 µM in assay [5]; greater than 100 µM in assay [6]. The TGI is 58.3 µM in assay [7], greater than 100 µM in assay [8], 33.5 µM in [9] and 31.5 µM in assay [10].
